Experimental data taken from patent US20190374533A1, “COMPOUNDS AND METHODS FOR INHIBITING NHE-MEDIATED ANTIPORT IN THE TREATMENT OF DISORDERS ASSOCIATED WITH FLUID RETENTION OR SALT OVERLOAD AND GASTROINTESTINAL TRACT DISORDERS” (Ardelyx, Inc., priority 2008, published 2019).
Where two headings read alike, the source gives them in different places.

Assays:
[1] = biological target: T1, rat NHE-3 (Rattus norvegicus, UniProt P26433); assay: Cell-based assay of NHE-3 activity (Pharmacological Test Example 1); conditions: for IC50: read-out: rat NHE-3 Average pIC50 (converted)
T1 construct: expressed in transfected cells; host or cells: Opossum kidney (OK) cells (ATCC), electroporated
Protocol: Rat NHE-3-mediated Na^+-dependent H^+ antiport was measured using a modification of the pH sensitive dye method originally reported by Tsien (Proc. Natl. Acad. Sci. USA. (1984) 81(23): 7436-7440). Opossum kidney (OK) cells were obtained from the ATCC and propagated per their instructions. The rat NHE-3 gene was introduced into OK cells via electroporation, seeded into 96 well plates and grown overnight. Medium was aspirated from the wells, cells were washed twice with NaCl-HEPES buffer (100 mM NaCl, 50 mM HEPES, 10 mM glucose, 5 mM KCl, 2 mM CaCl2, 1 mM MgCl2, pH 7.4), then incubated for 30 min at room temperature with NH4Cl-HEPES buffer (20 mM NH4Cl, 80 mM NaCl, 50 mM HEPES, 5 mM KCl, 2 mM CaCl2), 1 mM MgCl2, pH 7.4) containing 5 uM BCECF-AM (Invitrogen). Cells were washed twice with Ammonium free, Nat-free HEPES (100 mM choline, 50 mM HEPES, 10 mM glucose, 5 mM KCl, 2 mM CaCl2), 1 mM MgCl2, pH 7.4) and incubated in the same buffer for 10 minutes at room temperature to lower intracellular pH. […] Initial rates were plotted as the average 3-6 replicates, and pIC50 values were estimated using GraphPad Prism.

[2] = Determination of compound Cmax and AUC; type: in vivo; conditions: rat; Sprague-Dawley rats, oral gavage, serum 0.5-4 h; actual oral dose (mg/kg) given
Protocol: Sprague-Dawley rats were orally gavaged with test article (2.5 mg/kg) and serum was collected at 0.5, 1, 2 and 4 h. Serum samples were treated with acetonitrile, precipitated proteins removed by centrifugation and supernatants analyzed by LC/MS/MS and compared against a standard curve to determine compound concentration. All compounds were orally dosed at the dosage shown, and pharmacokinetic parameters determined as described in the text.

[3] = OK cells expressing rat NHE-3, 0-30 uM test compound, 5 uM EIPA

T1 sequence (P26433 29-831): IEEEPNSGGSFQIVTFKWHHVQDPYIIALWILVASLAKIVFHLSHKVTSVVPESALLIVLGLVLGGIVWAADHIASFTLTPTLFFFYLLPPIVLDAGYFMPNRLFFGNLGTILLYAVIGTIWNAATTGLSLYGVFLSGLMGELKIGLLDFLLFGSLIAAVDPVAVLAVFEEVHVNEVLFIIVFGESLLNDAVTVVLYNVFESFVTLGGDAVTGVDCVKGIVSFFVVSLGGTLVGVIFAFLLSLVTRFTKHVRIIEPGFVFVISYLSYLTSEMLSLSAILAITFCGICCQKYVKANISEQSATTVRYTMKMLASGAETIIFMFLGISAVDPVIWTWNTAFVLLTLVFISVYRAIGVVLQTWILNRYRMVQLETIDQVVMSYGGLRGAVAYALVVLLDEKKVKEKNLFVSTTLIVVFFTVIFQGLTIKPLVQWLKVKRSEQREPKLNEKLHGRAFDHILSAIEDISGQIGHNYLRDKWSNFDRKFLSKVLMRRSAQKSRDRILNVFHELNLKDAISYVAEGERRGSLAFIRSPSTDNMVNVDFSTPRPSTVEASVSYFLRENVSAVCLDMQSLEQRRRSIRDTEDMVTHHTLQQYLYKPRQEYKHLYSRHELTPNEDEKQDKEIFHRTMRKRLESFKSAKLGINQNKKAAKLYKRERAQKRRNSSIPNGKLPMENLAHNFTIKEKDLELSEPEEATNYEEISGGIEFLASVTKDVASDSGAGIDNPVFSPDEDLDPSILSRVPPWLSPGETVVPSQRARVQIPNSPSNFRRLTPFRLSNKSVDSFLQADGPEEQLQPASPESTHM

Compound	rat NHE-3 Average pIC50 [1, 3]	AUC [2] [ng·h/mL]	Cmax [2] [ng/mL]	rat NHE-3 Average pIC50 [1]	IC50 [1, 3] [nM]
CN1Cc2c(Cl)cc(Cl)cc2C(c2ccc(S(=O)(=O)NCC(=O)NCC(=O)NCC(=O)NCCCCNC(=O)CNC(=O)CNC(=O)CNS(=O)(=O)c3ccc(C4CN(C)Cc5c(Cl)cc(Cl)cc54)cc3)cc2)C1 (centres unmarked) [Example 204, N,N′-(butane-1,4-diyl)bis(2-(2-(2-(4-(6,8-dichloro-2-methyl-1,2,3,4-tetrahydroisoquinolin-4-yl)phenylsulfonamido)acetamido)acetamido)acetamide)]	>7	< 2	< 2		
CN1Cc2c(Cl)cc(Cl)cc2C(c2ccc(S(=O)(=O)NCCOCCOCCNC(=O)c3ccc(C(=O)NCCOCCOCCNS(=O)(=O)c4ccc(C5CN(C)Cc6c(Cl)cc(Cl)cc65)cc4)cc3)cc2)C1 (centres unmarked) [Example 231, N1,N4-bis(2-(2-(2-(4-(6,8-dichloro-2-methyl-1,2,3,4-tetrahydroisoquinolin-4-yl)phenylsulfonamido)ethoxy)ethoxy)ethyl)terephthalamide]		< 3	< 2.5	<5.0	
CN1Cc2c(Cl)cc(Cl)cc2C(c2cccc(S(=O)(=O)NCCOCCOCCOCCNC(=O)c3ccccc3C(=O)NCCOCCOCCOCCNS(=O)(=O)c3cccc(C4CN(C)Cc5c(Cl)cc(Cl)cc54)c3)c2)C1 (centres unmarked) [Example 230, N1,N2-bis(2-(2-(2-(2-(3-(6,8-dichloro-2-methyl-1,2,3,4-tetrahydroisoquinolin-4-yl)phenylsulfonamido)ethoxy)ethoxy)ethoxy)-ethyl)phthalamide]		< 5	< 5	>7	
CN1Cc2c(Cl)cc(Cl)cc2C(c2cccc(S(=O)(=O)NCCOCCOCCOCCNC(=O)c3ccc(C(=O)NCCOCCOCCOCCNS(=O)(=O)c4cccc(C5CN(C)Cc6c(Cl)cc(Cl)cc65)c4)cc3)c2)C1 (centres unmarked) [Example 216, N1,N4-bis(2-(2-(2-(2-(3-(6,8-dichloro-2-methyl-1,2,3,4-tetrahydroisoquinolin-4-yl)phenylsulfonamido)ethoxy)ethoxy)ethoxy)ethyl)terephthalamide]		< 8.3	< 4		< 100
C/C(=C\c1cc(F)c(Oc2ccc(S(=O)(=O)NCCOCCOCCOCCNC(=O)[C@H](O)[C@@H](O)C(=O)NCCOCCOCCOCCNS(=O)(=O)c3ccc(Oc4c(F)cc(/C=C(\C)C(=O)N=C(N)N)cc4F)cc3)cc2)c(F)c1)C(=O)N=C(N)N [Example 212, (2R,3R)—N1,N4-bis(2-(2-(2-(2-(4-(4-((E)-3-(diaminomethyleneamino)-2-methyl-3-oxoprop-1-enyl)-2,6-difluorophenoxy)phenylsulfonamido)ethoxy)ethoxy)ethoxy)ethyl)-2,3-dihydroxysuccinamide]		< 4.4	< 2.7		< 100
CN1Cc2c(Cl)cc(Cl)cc2C(c2cccc(S(=O)(=O)NCCOCCOCCOCCNC(=O)c3cc(C(=O)NCCOCCOCCOCCNS(=O)(=O)c4cccc(C5CN(C)Cc6c(Cl)cc(Cl)cc65)c4)cc(C(=O)NCCOCCOCCOCCNS(=O)(=O)c4cccc(C5CN(C)Cc6c(Cl)cc(Cl)cc65)c4)c3)c2)C1 (centres unmarked) [Example 215, N1,N3,N5-tris(2-(2-(2-(2-(3-(6,8-dichloro-2-methyl-1,2,3,4-tetrahydroisoquinolin-4-yl)phenylsulfonamido)ethoxy)ethoxy)ethoxy)ethyl)benzene-1,3,5-tricarboxamide]	>7	< 2	< 2		
CN1Cc2c(Cl)cc(Cl)cc2C(c2ccc(S(=O)(=O)NCCOCCOCCNC(=O)NCCOCCOCCNS(=O)(=O)c3ccc(C4CN(C)Cc5c(Cl)cc(Cl)cc54)cc3)cc2)C1 (centres unmarked) [Example 232, N,N′-(10-oxo-3,6,14,17-tetraoxa-9,11-diazanonadecane-1,19-diyl)bis(4-(6,8-dichloro-2-methyl-1,2,3,4-tetrahydroisoquinolin-4-yl)benzenesulfonamide)]		< 2	< 2	<5.0	
CN1Cc2c(Cl)cc(Cl)cc2C(c2cccc(S(=O)(=O)NCCOCCOCCOCCNC(=O)CN(CC(=O)NCCOCCOCCOCCNS(=O)(=O)c3cccc(C4CN(C)Cc5c(Cl)cc(Cl)cc54)c3)CC(=O)NCCOCCOCCOCCNS(=O)(=O)c3cccc(C4CN(C)Cc5c(Cl)cc(Cl)cc54)c3)c2)C1 (centres unmarked) [Example 213, 2,2′,2″-nitrilotris(N-(2-(2-(2-(2-(3-(6,8-dichloro-2-methyl-1,2,3,4-tetrahydroisoquinolin-4-yl)phenylsulfonamido)ethoxy)ethoxy)ethoxy)ethyl)acetamide)]	6 to 7	< 5	< 5		
CN1Cc2c(Cl)cc(Cl)cc2C(c2ccc(S(=O)(=O)NCCOCCOCCNC(=O)C(O)C(O)C(=O)NCCOCCOCCNS(=O)(=O)c3ccc(C4CN(C)Cc5c(Cl)cc(Cl)cc54)cc3)cc2)C1 (centres unmarked) [Example 205, N1,N4-bis(2-(2-(2-(4-(6,8-dichloro-2-methyl-1,2,3,4-tetrahydroisoquinolin-4-yl)phenylsulfonamido)ethoxy)ethoxy)ethyl)-2,3-dihydroxysuccinamide]	>7	< 2	< 2		
CN1Cc2c(Cl)cc(Cl)cc2C(c2cccc(S(=O)(=O)NCCOCCOCCOCCNC(=O)NCCCCNC(=O)NCCOCCOCCOCCNS(=O)(=O)c3cccc(C4CN(C)Cc5c(Cl)cc(Cl)cc54)c3)c2)C1 (centres unmarked) [Example 208, N,N′-(13,20-dioxo-3,6,9,24,27,30-hexaoxa-12,14,19,21-tetraazadotriacontane-1,32-diyl)bis(3-(6,8-dichloro-2-methyl-1,2,3,4-tetrahydroisoquinolin-4-yl)benzenesulfonamide)]	>7	< 5	< 5		
C/C(=C\c1cc(F)c(Oc2ccc(S(=O)(=O)NCCOCCOCCOCCOCCOCCOCCN)cc2)c(F)c1)C(=O)N=C(N)N [Example 211, (E)-3-(4-(4-(N-(20-amino-3,6,9,12,15,18-hexaoxaicosyl)sulfamoyl)phenoxy)-3,5-difluorophenyl)-N-(diaminomethylene)-2-methylacrylamide]	6 to 7	< 3	< 2.3		
CN1Cc2c(Cl)cc(Cl)cc2C(c2cccc(S(=O)(=O)NCCOCCOCCOCCOCCOCCOCCOCCOCCOCCOCCNC(=O)CCOCCOCCOCCOCCOCCOCCOCCOCCOCCC(=O)NCCOCCOCCOCCOCCOCCOCCOCCOCCOCCOCCNS(=O)(=O)c3cccc(C4CN(C)Cc5c(Cl)cc(Cl)cc54)c3)c2)C1 (centres unmarked) [Example 217, N1,N31-bis(32-(3-(6,8-dichloro-2-methyl-1,2,3,4-tetrahydroisoquinolin-4-yl)phenylsulfonamido)-3,6,9,12,15,18,21,24,27,30-decaoxadotriacontyl)-4,7,10,13,16,19,22,25,28-nonaoxahentriacontane-1,31-diamide]	6 to 7	< 10	< 10		
CN1Cc2c(Cl)cc(Cl)cc2C(c2cccc(S(=O)(=O)NCCOCCOCCOCCNC(=O)c3cccc(C(=O)NCCOCCOCCOCCNS(=O)(=O)c4cccc(C5CN(C)Cc6c(Cl)cc(Cl)cc65)c4)c3)c2)C1 (centres unmarked) [Example 228, N1,N3-bis(2-(2-(2-(2-(3-(6,8-dichloro-2-methyl-1,2,3,4-tetrahydroisoquinolin-4-yl)phenylsulfonamido)ethoxy)ethoxy)ethoxy)-ethyl)isophthalamide]	6 to 7	< 5	< 5		
CN1Cc2c(Cl)cc(Cl)cc2[C@H](c2ccc(S(=O)(=O)NCCOCCOCCOCCNC(=O)C(O)C(O)C(=O)NCCOCCOCCOCCNS(=O)(=O)c3ccc([C@@H]4CN(C)Cc5c(Cl)cc(Cl)cc54)cc3)cc2)C1 (single isomer, unassigned) [Example 225, N1,N4-bis(2-(2-(2-(2-(4-((S or R)-6,8-dichloro-2-methyl-1,2,3,4-tetrahydroisoquinolin-4-yl)phenylsulfonamido)ethoxy)ethoxy)ethoxy)ethyl)-2,3-dihydroxysuccinamide]		< 5.3	< 3.5		100 to 1000
CN1Cc2c(Cl)cc(Cl)cc2C(c2cccc(S(=O)(=O)NCCOCCOCCNC(=O)C(C)(C)C(=O)NCCOCCOCCNS(=O)(=O)c3cccc(C4CN(C)Cc5c(Cl)cc(Cl)cc54)c3)c2)C1 (centres unmarked) [Example 196, N1,N3-bis(2-(2-(2-(3-(6,8-dichloro-2-methyl-1,2,3,4-tetrahydroisoquinolin-4-yl)phenylsulfonamido)ethoxy)ethoxy)ethyl)-2,2-dimethylmalonamide]	5 to 6				
CN1Cc2c(Cl)cc(Cl)cc2C(c2cccc(S(=O)(=O)NCCOCCOCCOCCN)c2)C1 (centres unmarked) [Example 28, N-(2-(2-(2-(2-aminoethoxy)ethoxy)ethoxy)ethyl)-3-(6,8-dichloro-2-methyl-1,2,3,4-tetrahydroisoquinolin-4-yl)benzenesulfonamide]	6 to 7				
